In the oligonucleotide strings, read from the 5' end, every base follows the letter of its sugar. An asterisk marks phosphorothioate; unmarked linkages are phosphodiester. Other units and linkages are bracketed, terminal groups are in braces. A string of capitals states the bases alone. e = 2'-O-(2-methoxyethyl) (MOE); [5mC] = 5-methylcytosine; d = 2'-deoxy (DNA)
Key:
[1] = test system: collagen-induced arthritis (CIA) model; test: Arthritis Study A: collagen-induced arthritis (Example 11); type: in vivo, DBA/1J mice; conditions: DBA/1J mice, 20 mg/kg s.c. twice a week for 12 weeks
Experimental: The effect of inhibition of Factor XI and its role in fibrin accumulation in the joints leading to joint inflammation and rheumatoid arthritis was evaluated in a murine collagen-induced arthritis (CIA) model. […] Arthritis induced in mice administered collagen can be visually assessed and clinically scored as described by Marty et al. (J Clin Invest, 107:631-640, 2001) where 1 point is given for each swollen digit except the thumb (maximum, 4), 1 point is given for the tarsal or carpal joint, and 1 point is given for the metatarsal or metacarpal joint with a maximum score of […]. Each paw was graded individually, the cumulative clinical arthritic score per mouse reaching a maximum of 22 points
In a group of 15 DBA/1J mice, 20 mg/kg of ISIS 404071 was injected subcutaneously twice a week for 12 weeks. One control group of 15 mice was injected with 20 mg/kg of ISIS 403102 twice a week for 12 weeks. Two control groups of 15 mice each were injected with PBS twice a week for 12 weeks. Two weeks after the first oligonucleotide dose, type II bovine collagen (Chondrex Inc, Redmond, Wash.) was mixed with complete Freund's adjuvant, homogenized on ice and the emulsion, containing 100 μg of collagen, was injected subcutaneously at the base of the tail in the Factor XI group, the Factor VII group and one of the PBS control groups. A booster injection containing 100 μg collagen type II in incomplete Freund's adjuvant was injected subcutaneously at the base of the tail at a different injection site on day 21 after the first collagen injection in these groups.
Starting 35 days from the first collagen injection, mice in all groups were examined daily for the visual appearance of arthritis, such as swelling and stiffness, in peripheral joints. The results are presented in Table 20 (expressed as a percentage of the PBS control) and in FIGS. 1-3.
‘Incidence of CIA’ refers to the percentage of mice in each group that had CIA at day 40. The ‘percentage of paws affected’ refers to the percentage of paws out of a total of 60 paws in each group of mice that were affected with arthritis. ‘Average number of affected paws’ refers to the number of affected paws in mice that were diagnosed to have arthritis. The ‘clinical severity of CIA’ was scored as described by Marty et al. (J Clin Invest, 107:631-640, 2001) and as follows: 1 point for each swollen digit except the thumb (maximum, 4), 1 point for the tarsal or carpal joint, and 1 point for the metatarsal or metacarpal joint with a maximum score of 6 for a hindpaw and 5 for a forepaw. Each paw was graded individually, the cumulative clinical arthritic score per mouse reaching a maximum of 22 points.

[2] = test system: DSS-induced colitis model; test: Colitis Study A: DSS-induced colitis, body weight and colon length (Example 12); type: in vivo, Swiss Webb mice
Experimental: The effect of antisense oligonucleotide inhibition of Factor XI and its role in ameliorating colitis was evaluated in a dextran sulfate sodium (DSS)-induced colitis model. Administration of DSS to animals is a well known method to induce […] and has been previously described by Okayasu et al. (Gastroenterology, 1990, 98:694-702), Cooper et al. (Lab Invest, 1993, 69:238-249) and Dieleman et al. (Clin Exp Immunol, 1998, 114:385-391).
In groups of 8 Swiss Webb mice, 20 mg/kg of ISIS 404071 or ISIS 403102 were injected subcutaneously twice a week for 3 weeks. Two control groups of 8 mice each were injected with PBS twice a week for 3 weeks. After the oligonucleotide treatments, 4% DSS in water was administered ad libitum for 6 days to the experimental groups and one PBS control group.
Mice in all groups were weighed at day 0. Mice were sacrificed at the end of the study on day 7 after DSS was administered and their body weights and colon lengths were measured. Results are presented in Table 24 (expressed as a percentage of the PBS control) and FIG. 7.
Colon length was assessed in the DSS-induced colitis mice.

[3] = test system: DSS-induced colitis model; test: Colitis Study A: colon tissue histopathology; conditions: FIG. 8, listed as Factor VII ASO
[4] = Tolerability in Sprague-Dawley rats: liver function (Example 23); type: in vivo; parameters: Albumin: unit not given here; conditions: plasma, 50 mg/kg s.c. twice per week for 6 weeks
[5] = Tolerability in CD1 mice: body and organ weights (Example 21); type: in vivo; conditions: 50 mg/kg s.c. twice per week for 6 weeks
Experimental: Body weight was measured at the onset of the study and subsequently twice per week. The body weights of the mice are presented in Table 87 and are expressed increase in grams over the PBS control weight taken before the start of treatment. Liver, spleen, and kidney weights were measured at the end of the study, and are also presented in Table 87 as percentage of the body weight.

[6] = Tolerability in CD1 mice: hematology assays (Example 21); type: in vivo; conditions: 50 mg/kg s.c. twice per week for 6 weeks
[7] = Tolerability in Sprague-Dawley rats: hematology assays (Example 23); type: in vivo; parameters: RBC / WBC / Neutrophil / Lymphocyte / Platelets: unit not given here; conditions: blood
[8] = Tolerability in CD1 mice: liver function (Example 21); type: in vivo; parameters: Albumin: unit not given here; conditions: plasma, 50 mg/kg s.c. twice per week for 6 weeks
[9] = Tolerability in Sprague-Dawley rats: kidney function (Example 23); type: in vivo
[10] = Tolerability in Sprague-Dawley rats: body and organ weights (Example 23); type: in vivo; conditions: 50 mg/kg s.c. twice per week for 6 weeks
[11] = Tolerability in CD1 mice: kidney function (Example 21); type: in vivo; conditions: plasma, 50 mg/kg s.c. twice per week for 6 weeks
[12] = test system: bradykinin; test: Colitis Study E: bradykinin levels in colon; type: in vivo, Swiss Webb mice; conditions: Colitis Study E, day 7
Experimental: (§1) Two groups 8 Swiss Webb mice were dosed with 40 mg/kg of ISIS 404071 injected subcutaneously twice a week for 3 weeks. Two control groups of 8 Swiss Webb mice were dosed with PBS subcutaneously twice a week for 3 weeks. Both the ASO treated groups and one of the control groups were then given 4% DSS in distilled water for 7 days ad libitum. One of the ASO and DSS treated groups was also given intravenous injections of 20 μg of recombinant human Factor XI protein (Haematologic Technologies Inc.) for 7 consecutive days, starting the day before DSS treatment. Mice were sacrificed at the end of the study on day 7 after DSS was administered.
The effect of antisense inhibition of Factor XI on kinin levels in the colon was evaluated (Phoenix Pharmaceuticals, Burlingame, Calif.) at the end of the study on day 7 after DSS was administered and the results are presented in Table 40.

[13] = test system: IFN-γ, IL-10, IL-12, IL-1β, IL-2, IL-4, IL-5, TNF-α, KC; test: Colitis Study E: cytokine levels in colon (multiplex ELISA); type: in vivo, Swiss Webb mice; conditions: Colitis Study E, day 7
Experimental: as §1
The cytokine levels of IFN-γ, IL-10, IL-12, IL-1β, IL-2, IL-4, IL-5, TNF-α, and keratinocyte chemoattractant (KC) were measured in the colon of the mice groups at the end of the study on day 7 after DSS was administered. Colons were homogenized on ice in PBS supplemented with protease inhibitors (Sigma, St. Louis, Mo.) and extracted with rotation at 4° C. for 1 hour. After removal of insoluble material by centrifugation, colon homogenates were used for the cytokine analysis by multiplex ELISA (Mouse TH1/TH2 9-Plex Ultra-Sensitive Kit, Meso Scale Discovery, Gaithersburg, Md.) according to the manufacture's protocol. Cytokine levels in colon extracts were normalized to the protein concentration measured by protein assay kit (BioRad, Hercules, Calif.). The levels of pro-inflammatory cytokines, IFN-γ, IL-1β, IL-10, IL-2, IL-5, TNF-α, and KC were elevated by DSS administration, and were decreased by treatment with ISIS 404071.

[14] = test system: DSS-induced colitis model; test: Colitis Study E: weight change, colon length, stool analysis; type: in vivo, Swiss Webb mice; conditions: Colitis Study E, day 7
Experimental: as §1
Mice in all groups were weighed at day 0 and at the end of the study. […] Mice were sacrificed at the end of the study on day 7 after DSS was administered and their colon lengths were measured.

[15] = test system: soluble CD40 ligand (CD40L); test: Colitis Study E: CD40L plasma levels; type: in vivo, Swiss Webb mice; conditions: Colitis Study E, day 7
Experimental: as §1
Plasma levels of soluble CD40 ligand (CD40L) are known to be elevated in cases of inflammatory bowel disease (Ludwiczek, O. et al., Int. J. Colorectal Disease. 2003. 18: 142-147) and may be considered a marker of intestinal inflammation. The effect of antisense inhibition of Factor XI on CD40L levels in the plasma was evaluated at the end of the study on day 7 after DSS was administered and the results are presented in Table 39. CD40L levels in plasma were measured by commercially available ELISA kits (Bender MedSystems, Vienna, Austria, eBioscience, San Diego, Calif.) according to the manufacture's protocols.

[16] = test system: thrombin-antithrombin (TAT) complexes; test: Colitis Study E: TAT levels; type: in vivo, Swiss Webb mice; conditions: Colitis Study E, day 7
Experimental: as §1
Mice with dextran sodium sulfate (DSS)-induced colitis have elevated level of thrombin-antithrombin (TAT) complexes in blood (Anthoni, C. et al., J. Exp. Med. 204: 1595-1601, 2007) and is also observed in patients with ulcerative colitis (Kume, K. et al., Intern Med. 2007. 46: 1323-9). The effect of antisense inhibition of Factor XI on TAT levels in the […] was evaluated (Siemens Healthcare Diagnostics, Deerfield, Ill.) at the end of the study on day 7 after DSS was administered and the results are presented in Table 38.

[17] = DSS-induced colitis, day 7, 20 mg/kg s.c. twice a week for 3 weeks, expressed as a percentage of the PBS control
[18] = increase over PBS control weight before start of treatment

Substance: CCATAGAACAGCTTCACAGG (e[5mC]*e[5mC]*eA*eT*eA*dG*dA*dA*d[5mC]*dA*dG*d[5mC]*dT*dT*d[5mC]*eA*e[5mC]*eA*eG*eG) [ISIS 403102, reference compound]
- Average no. of paws affected ([1]; in mice diagnosed with arthritis): 1
- % of paws affected ([1]; out of 60 paws per group): 19%
- % of CIA ([1]; percentage of mice in group with CIA at day 40): 54%
- Clinical severity of CIA ([1]; score of Marty et al., maximum 22 points): 4
- body weight (in words) ([2]; Colitis Study A, FIG. 7A/7B): had a decrease in body weight
- colon length (in words) ([2]; Colitis Study A, FIG. 7C): had a decrease in colon length
- Body weight change [2, 17]: −7%
- Colon length change [2, 17]: −34%
- colon histology, lesions (in words) [3]: shows the same histology as the DSS control

Substance: GGTGCACAGTTTCTGGCAGG (all C 5-methyl, all phosphorothioate, sugars by position not given here; MOE gapmer) [ISIS 413481, 5-10-5 MOE gapmer]
- ALT [4]: 54 IU/L
- AST [4]: 80 IU/L
- Albumin [4]: 4
- Bilirubin [4]: 0.22 mg/dL
- Body weight [5, 18]: 9 g
- Kidney weight ([5]; percentage of the body weight): 1.5%
- Liver weight ([5]; percentage of the body weight): 6%
- Spleen weight ([5]; percentage of the body weight): 0.5%
- HCT [6]: 45%
- Hemoglobin [6]: 13 g/dL
- Lymphocyte [6]: 4329 cells/μL
- Monocytes [6]: 204 cells/μL
- Neutrophil [6]: 1904 cells/μL
- Platelets [6]: 841 10^3/μL
- RBC [6]: 9 10^6/μL
- WBC [6]: 7 10^3/μL
- HCT [7]: 43%
- Hemoglobin [7]: 14.2 g/dL
- Lymphocyte [7]: 12707
- Neutrophil [7]: 1046
- Platelets [7]: 552
- RBC [7]: 7.5
- WBC [7]: 14
- ALT [8]: 85 IU/L
- AST [8]: 143 IU/L
- Albumin [8]: 3.2
- Bilirubin [8]: 0.18 mg/dL
- Cholesterol [8]: 153 mg/dL
- creatinine [9]: 45 mg/dL
- BUN ([9]; plasma): 26 mg/dL
- Total urine protein ([9]; total urine samples): 148 mg/dL
- Urine protein/creatinine ratio ([9]; total urine samples): 3.6
- Body weight [10, 18]: 147 g
- Kidney weight ([10]; percentage of the body weight): 0.9%
- Liver weight ([10]; percentage of the body weight): 5%
- Spleen weight ([10]; percentage of the body weight): 0.3%
- BUN [11]: 23 mg/dL

Substance: recombinant Factor XI protein: recombinant human Factor XI protein (Haematologic Technologies Inc.)
- bradykinin levels (in words) [12]: restoration of bradykinin levels to that of the DSS treated mice
- pro-inflammatory cytokine levels in colon: IFN-γ, IL-1β, IL-10, IL-2, IL-5, TNF-α, KC (in words) [13]: restoration of cytokine levels to that of the DSS treated mice
- colon length (in words) [14]: increase in colon length due to treatment with ISIS 404071 is eliminated
- stool softness/diarrhea (in words) [14]: amelioration of diarrhea in mice treated with ISIS 404071 is eliminated
- CD40L levels in plasma (in words) [15]: restoration of CD40L levels to that of the DSS treated mice
- TAT levels (in words) [16]: near restoration of TAT levels to that of the DSS treated mice

— patent US20120083522A1, “MODULATION OF INFLAMMATORY RESPONSES BY FACTOR XI” (Isis Pharmaceuitcals, inc., priority 2009, published 2012)
